According to PubChem BioAssay AID1259407 (Chemical Carcinogenesis Research Information System (CCRIS), 2018):
Activity calls are given as the source filed them. How the calls were made is not given here.

Test system: CCRIS mutagenicity, Ames/micronucleus/aberration tests
Test: CCRIS mutagenicity studies
[1] = Test System: AMES SALMONELLA TYPHIMURIUM, Strain/Indicator: TA98, Metabolic Activation: NONE, Method: PREINCUBATION
[2] = Test System: AMES SALMONELLA TYPHIMURIUM, Strain/Indicator: TA100, Metabolic Activation: NONE, Method: PREINCUBATION
[3] = Test System: AMES SALMONELLA TYPHIMURIUM, Strain/Indicator: TA1535, Metabolic Activation: NONE, Method: PREINCUBATION
[4] = Test System: AMES SALMONELLA TYPHIMURIUM, Strain/Indicator: TA1537, Metabolic Activation: NONE, Method: PREINCUBATION
[5] = Test System: AMES SALMONELLA TYPHIMURIUM, Strain/Indicator: TA98, Metabolic Activation: HAMSTER, LIVER, S-9, AROCLOR 1254 (10%), Method: PREINCUBATION
[6] = Test System: AMES SALMONELLA TYPHIMURIUM, Strain/Indicator: TA98, Metabolic Activation: RAT, LIVER, S-9, AROCLOR 1254 (10%), Method: PREINCUBATION
[7] = Test System: AMES SALMONELLA TYPHIMURIUM, Strain/Indicator: TA100, Metabolic Activation: HAMSTER, LIVER, S-9, AROCLOR 1254 (10%), Method: PREINCUBATION
[8] = Test System: AMES SALMONELLA TYPHIMURIUM, Strain/Indicator: TA100, Metabolic Activation: RAT, LIVER, S-9, AROCLOR 1254 (10%), Method: PREINCUBATION
[9] = Test System: AMES SALMONELLA TYPHIMURIUM, Strain/Indicator: TA1535, Metabolic Activation: HAMSTER, LIVER, S-9, AROCLOR 1254 (10%), Method: PREINCUBATION
[10] = Test System: AMES SALMONELLA TYPHIMURIUM, Strain/Indicator: TA1535, Metabolic Activation: RAT, LIVER, S-9, AROCLOR 1254 (10%), Method: PREINCUBATION

Measured: mutagenic call

c1ccc2c(c1)-c1nc3ccccc3c3c1c-2nc1ccccc13
inactive: Test System: AMES SALMONELLA TYPHIMURIUM, Strain/Indicator: TA98, Metabolic Activation: NONE, Method: STANDARD PLATE inactive; negative | Test System: AMES SALMONELLA TYPHIMURIUM, Strain/Indicator: TA98, Metabolic Activation: RAT LIVER S-9, AROCLOR 1254, Method: STANDARD PLATE inactive; negative | Test System: ESCHERICHIA COLI, Strain/Indicator: WP2 UVR A, Metabolic Activation: NONE, Method: STANDARD PLATE inactive; negative | Test System: ESCHERICHIA COLI, Strain/Indicator: WP2 UVR A, Metabolic Activation: RAT LIVER S-9, AROCLOR 1254, Method: STANDARD PLATE inactive; negative

CC(=O)N=C1C=CC(=O)C=C1
inactive: [1] inactive; negative | Test System: AMES SALMONELLA TYPHIMURIUM, Strain/Indicator: TA102, Metabolic Activation: NONE, Method: PREINCUBATION inactive; negative | Test System: UDS MOUSE HEPATOCYTES, Strain/Indicator: THY INCORP (NON-S-PHASE), Metabolic Activation: NONE, Method: LIQUID SCINTILLATION COUNTING inactive; negative

O=[N+]([O-])c1cccc(Cl)c1Cl
inactive: Test System: AMES SALMONELLA TYPHIMURIUM, Strain/Indicator: TA98, Metabolic Activation: HAMSTER, LIVER, S-9, AROCLOR 1254, Method: PREINCUBATION inactive; negative | [1] inactive; negative | Test System: AMES SALMONELLA TYPHIMURIUM, Strain/Indicator: TA98, Metabolic Activation: RAT, LIVER, S-9, AROCLOR 1254, Method: PREINCUBATION inactive; negative | Test System: AMES SALMONELLA TYPHIMURIUM, Strain/Indicator: TA100, Metabolic Activation: HAMSTER, LIVER, S-9, AROCLOR 1254, Method: PREINCUBATION inactive; negative | [2] inactive; negative | Test System: AMES SALMONELLA TYPHIMURIUM, Strain/Indicator: TA100, Metabolic Activation: NONE, Method: STANDARD PLATE inactive; negative | Test System: AMES SALMONELLA TYPHIMURIUM, Strain/Indicator: TA100, Metabolic Activation: RAT, LIVER, S-9, AROCLOR 1254, Method: PREINCUBATION inactive; negative | Test System: AMES SALMONELLA TYPHIMURIUM, Strain/Indicator: TA1535, Metabolic Activation: HAMSTER, LIVER, S-9, AROCLOR 1254, Method: PREINCUBATION inactive; negative | [3] inactive; negative | Test System: AMES SALMONELLA TYPHIMURIUM, Strain/Indicator: TA1535, Metabolic Activation: RAT, LIVER, S-9, AROCLOR 1254, Method: PREINCUBATION inactive; negative | Test System: AMES SALMONELLA TYPHIMURIUM, Strain/Indicator: TA1537, Metabolic Activation: HAMSTER, LIVER, S-9, AROCLOR 1254, Method: PREINCUBATION inactive; negative | [4] inactive; negative | Test System: AMES SALMONELLA TYPHIMURIUM, Strain/Indicator: TA1537, Metabolic Activation: RAT, LIVER, S-9, AROCLOR 1254, Method: PREINCUBATION inactive; negative

NC(=O)c1ccccc1C(N)=O
inactive: [5] inactive; negative | [1] inactive; negative | [6] inactive; negative | [7] inactive; negative | [2] inactive; negative | [8] inactive; negative | [9] inactive; negative | [3] inactive; negative | [10] inactive; negative | Test System: AMES SALMONELLA TYPHIMURIUM, Strain/Indicator: TA1537, Metabolic Activation: HAMSTER, LIVER, S-9, AROCLOR 1254 (10%), Method: PREINCUBATION inactive; negative | [4] inactive; negative | Test System: AMES SALMONELLA TYPHIMURIUM, Strain/Indicator: TA1537, Metabolic Activation: RAT, LIVER, S-9, AROCLOR 1254 (10%), Method: PREINCUBATION inactive; negative

OC1c2cccc3c2C2(OC2C1O)c1ccc2ccccc2c1-3 (stereo not given)
active: Test System: AMES SALMONELLA TYPHIMURIUM, Strain/Indicator: TA97A, Metabolic Activation: NONE, Method: PREINCUBATION active; positive | [1] active; positive | [2] active; positive

CC(=O)NBr
inactive: Test System: AMES SALMONELLA TYPHIMURIUM, Strain/Indicator: TA97, Metabolic Activation: HAMSTER, LIVER, S-9, AROCLOR 1254 (10%), Method: PREINCUBATION inactive; negative | Test System: AMES SALMONELLA TYPHIMURIUM, Strain/Indicator: TA97, Metabolic Activation: HAMSTER, LIVER, S-9, AROCLOR 1254 (30%), Method: PREINCUBATION inactive; negative | Test System: AMES SALMONELLA TYPHIMURIUM, Strain/Indicator: TA97, Metabolic Activation: NONE, Method: PREINCUBATION inactive; negative | Test System: AMES SALMONELLA TYPHIMURIUM, Strain/Indicator: TA97, Metabolic Activation: RAT, LIVER, S-9, AROCLOR 1254 (10%), Method: PREINCUBATION inactive; negative | Test System: AMES SALMONELLA TYPHIMURIUM, Strain/Indicator: TA97, Metabolic Activation: RAT, LIVER, S-9, AROCLOR 1254 (30%), Method: PREINCUBATION inactive; negative | [5] inactive; negative | Test System: AMES SALMONELLA TYPHIMURIUM, Strain/Indicator: TA98, Metabolic Activation: HAMSTER, LIVER, S-9, AROCLOR 1254 (30%), Method: PREINCUBATION inactive; negative | [1] inactive; negative | [6] inactive; negative | Test System: AMES SALMONELLA TYPHIMURIUM, Strain/Indicator: TA98, Metabolic Activation: RAT, LIVER, S-9, AROCLOR 1254 (30%), Method: PREINCUBATION inactive; negative | [7] inactive; negative | Test System: AMES SALMONELLA TYPHIMURIUM, Strain/Indicator: TA100, Metabolic Activation: HAMSTER, LIVER, S-9, AROCLOR 1254 (30%), Method: PREINCUBATION inactive; negative | [2] inactive; negative | [8] inactive; negative | Test System: AMES SALMONELLA TYPHIMURIUM, Strain/Indicator: TA100, Metabolic Activation: RAT, LIVER, S-9, AROCLOR 1254 (30%), Method: PREINCUBATION inactive; negative | [9] inactive; negative | Test System: AMES SALMONELLA TYPHIMURIUM, Strain/Indicator: TA1535, Metabolic Activation: HAMSTER, LIVER, S-9, AROCLOR 1254 (30%), Method: PREINCUBATION inactive; negative | [3] inactive; negative | [10] inactive; negative | Test System: AMES SALMONELLA TYPHIMURIUM, Strain/Indicator: TA1535, Metabolic Activation: RAT, LIVER, S-9, AROCLOR 1254 (30%), Method: PREINCUBATION inactive; negative
